Reference: article PMC10714399, “Open Source Antibiotics: Simple Diarylimidazoles Are Potent against Methicillin-Resistant Staphylococcus aureus” (ACS Infectious Diseases, 2023)
In brackets after ≈: the same amount, converted by molar mass. Read-outs that look alike come from different tables or passages of the source.

How the values were obtained:
[1] = test system: Staphylococcus aureus ATCC 43300 MRSA; experiment: CO-ADD antibacterial assay (growth inhibition, MIC), MRSA; assay type: cell-based; conditions: read-out: MRSA MIC (CO-ADD)
Experimental: Hit Confirmation of active compounds by whole cell growth inhibition assays was conducted as an 8-point dose response to determine the Minimum Inhibitory Concentration (MIC), in duplicate (n=2). The inhibition of growth is measured against those microorganisms that […]
Included in the Hit Confirmation were 5 bacteria: Escherichia coli, Klebsiella pneumoniae, Acinetobacter baumannii, Pseudomonas aeruginosa and Staphylococcus aureus, and 2 fungi Candida albicans and Cryptococcus neoformans. […]
Assay Parameters Bacteria Fungi HEK293 Haemolysis […]
Duplicate (n=2) Duplicate (n=2) Duplicate (n=2) Duplicate (n=2)
QC Control MIC: Control MIC: Control CC50: Control HC10:
Non-Binding Non-Binding TC, 384-well Polypropylene
Plates Surface (NBS), Surface (NBS), black wall/clear 384-well and 384-well plate 384-well plate bottom polystyrene 384-
Cation-adjusted Yeast Nitrogen DMEM
Media Mueller Hinton Base supplemented 0.9% NaCl
Hit Confirmation outcomes are detailed in individual Project reports, personalised for each Project Submission for each CO-ADD user.
Please see your data sheet with file extension P0XXX_HC_data.xlsx, for example CO-ADD Project P0100, P0100_HC_data.xlsx
Study: HC_data ID: HC-Procedures & Materials
Date: Last updated June 2018 Confidential Page 3 of 11
(1 picture or pasted object on this page, not shown here)
Samples were provided by the collaborator and stored frozen at -20 °C. Samples were prepared in DMSO and water to a final testing concentration of 32 µg/mL or 20 µM (unless otherwise indicated in the data sheet) and serially diluted 1:2 fold for 8 times. Each sample concentration was prepared in 384-well plates, non-binding surface plate (NBS; Corning 3640) for each bacterial/fungal strain, tissue-culture treated (TC-treated; Corning 3712/3764) black for mammalian cell types and polypropylene 384-well (PP; Corning 3657) for haemolysis assays, all in duplicate (n=2), and keeping the final DMSO concentration to a maximum of 0.5%. All the sample preparation was done using liquid handling robots. […]
detailed in the Data sheet for the individual Project.
All bacteria were cultured in Cation-adjusted Mueller Hinton broth (CAMHB) at 37 °C overnight. A sample of each culture was then diluted 40-fold in fresh broth and incubated at 37 °C for 1.5-3 h. The resultant mid-log phase cultures were diluted (CFU/mL measured by OD600), then added to each well of the compound containing plates, giving a cell density of 5×10^5 CFU/mL and a total volume of 50 µL. All the plates were covered and incubated at 37 °C for 18 h without shaking.
Inhibition of bacterial growth was determined measuring absorbance at 600 nm (OD600), using a Tecan M1000 Pro monochromator plate reader. The percentage of growth inhibition was calculated for each well, using the negative control (media only) and positive control (bacteria without inhibitors) on the same plate as references.
The percentage of growth inhibition was calculated for each well, using the negative control (media only) and positive control (bacteria without inhibitors) on the same plate. The MIC […]
by an inhibition ≥ 80%. In addition, the maximal percentage of growth inhibition is reported as DMax, indicating any compounds with partial activity.
Date: Last updated June 2018 Confidential Page 5 of 11
Material Code Brand/Supplier Cat No.
Compound preparation plate, Polypropylene PP Corning 3364
Assay Plates – Antimicrobial
Non-binding surface NBS 384w Corning 3640
Assay Plates – Cytotoxicity
Tissue culture treated Black/Clear bottom 384w Corning 3712
Assay Plates - Haemolysis PP-Haem Corning 3657 […]
Growth media - bacteria CAMHB Bacto Laboratories 212322
Culture agar - fungi YPD Becton Dickinson 242720
Growth media - fungi YNB Becton Dickinson 233520
Resazurin Sigma-Aldrich R7017
Dulbecco's Modified Eagle Medium DMEM Life Technologies 11995-073
Foetal Bovine Serum FBS Bovogen FFBS-500
0.9% NaCl Saline Baxter AHF7124
Sample Name Sample ID MW Conc. Solvent Source […]

[2] = test system: Staphylococcus aureus NCTC 13373 (mecA-positive; methicillin-resistant); experiment: In vitro antibacterial activity, MIC (UCL School of Pharmacy assay), MRSA; assay type: cell-based; conditions: Staphylococcus aureus, read-out: MRSA MIC
Procedure, shortened: (§1)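 MIC determined over 32–0.03 μg/mL in 2-fold steps, with at most 2% DMSO, in isosensitest broth. Organisms were suspended in PBS to A600 0.1 (about 1 × 10^8 CFU/mL), diluted 1:100 and inoculated; vancomycin served as QC compound.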

[3] = test system: S. aureus ATCC 25923 (methicillin-susceptible); experiment: In vitro antibacterial activity, MIC (UCL), MSSA; assay type: cell-based, Staphylococcus aureus; conditions: Staphylococcus aureus; read-out: MSSA MIC
Procedure, shortened: as §1

[4] = test system: Enterococcus faecalis ATCC 51299 (vanA-positive; vancomycin-resistant); experiment: In vitro antibacterial activity, MIC (UCL), VRE; assay type: cell-based; conditions: read-out: VRE MIC
Procedure, shortened: as §1

[5] = test system: MRC-5SV2 (human lung fibroblast cell line); experiment: Toxicity against MRC-5SV2; assay type: cell-based
Experimental: (§2) ADME and toxicity for compounds were measured according to procedures outlined in the manuscript submitted in parallel to this one;2 other procedures were used for those compounds analysed by Monash University (in vitro ADME) or UCL (toxicity), both described in the main

[6] = test system: PMM (primary mouse macrophages); experiment: Toxicity against PMM; assay type: cell-based
Experimental: as §2

[7] = HEK293 toxicity, 96-well dose-response (UCL; MTT or resazurin, with or without recovery); assay type: cell-based, human; conditions: human, HEK293 cells; 32 μg/mL; read-out: spread of Dmax values comparing recovery and non-recovery conditions
Experimental: The importance of balancing potency vs MRSA and cytotoxicity led us to examine a subset of compounds more thoroughly for toxicity against human embryonic kidney cell line HEK293. […] Dmax is a parameter that quantifies toxicity at the highest tested concentration (32 μg/mL for all compounds), calculated as reciprocal percentage of viable cells (100 – viability%), where cells either were allowed to recover or viability was measured immediately after treatment. […] Our efforts focused on trying to replicate the original toxicity experiments (by CO-ADD) with tamoxifen using a protocol modified for use with 96-well plates. Given the variability of protocols and results in the literature,[28] it was important to compare with a standard protocol we have reliably used in our own laboratories.[29]−[33] […] Truly “non-toxic” compounds might be expected to show Dmax < 50% for all experiment variations, e.g., 861. […] A large spread of Dmax values comparing recovery and non-recovery conditions larger than 20% is perhaps indicative of a mechanism of toxicity that persists beyond exposure, i.e., cytotoxic compounds that continue to induce toxicity as cells recover and restart dividing, for example, compounds 865, 870, 871, 980, and 981. […] This variability could be driven by interference of the compounds with the fluorescence readout or resorufin build-up as previously described.[27]
HEK293 cells (ATCC, UK) at passage 32 were a kind gift from Dr. Ben Allsop from the Translational Research Office at University College London. Cells were tested for mycoplasma using a MycoAlert Detection Kit (Lonza, Switzerland) as per manufacturer instructions, frozen stocks were stored in liquid nitrogen, and cells were re-tested whenever a new aliquot was thawed.
Cells were maintained in DMEM (Sigma-Aldrich, UK) supplemented with 10% heat-inactivated FBS (Sigma-Aldrich, UK), 1% GlutaMax (ThermoFisher, UK), and 1% sodium pyruvate (Lonza, UK) without antibiotics in an incubator at 37 °C and 5% CO2. Media was changed every 2 days, and cells were passaged every 3–4 days at a subcultivation ratio of 1:10, by detaching the cells with phenol-free TrypLE Express (ThermoFisher, UK), after washing with HBSS Ca^2+/Mg^2+ (ThermoFisher, UK). Up to 55 passages were used throughout the experiments.
(a) Cell seeding: At subculture, a dilute solution of cells was counted using Trypan Blue (Sigma-Aldrich, UK) and a hemocytometer. Cells were further diluted to 7000 or 50 000 cells/mL for experiments.
For recovery experiments, 700 cells (100 μL) were seeded in 96-well plates and incubated for 48 h while cells reached exponential phase.
For non-recovery experiments, 5000 cells (100 μL) were seeded in 96-well plates and incubated for 48 h while cells reached confluence. This is the same number of cells as per the CO-ADD protocol where 384-well plates were used, but we extended the growth time to 48 h to produce a similar confluency.
Stock solutions were diluted 100 times (to 1% DMSO) to 32 μg/mL in full medium (vortexed briefly) and then serially diluted using a digital pipet (Explorer, Eppendorf, Germany) at a dilution factor of 2 to a final concentration of […].
(c) Dosing experiments: At the specified time after seeding, media was removed from cells, cells were washed with HBSS Ca^2+/Mg^2+ (100 μL), and 100 μL of diluted compounds were added as per Supporting Information - Biology, Figure S4, and incubated for 24 h.
After treatment, solutions were removed, and cells were washed with HBSS Ca^2+/Mg^2+. For non-recovery experiments, viability was determined immediately as described below.
For recovery experiments, fresh media was added to plates (100 μL) and cells were returned to the incubator for another 72 h, after which viability was recorded as described below.
i. MTT assay: 3-[4,5-Dimethylthiazol-2-yl]-2,5-diphenyltetrazolium bromide (MTT) (Sigma-Aldrich, UK) was dissolved in sterile PBS at 5 mg/mL with sonication (20 min), protected from light. […]

Aqueous solubility = assay type: physicochemical; conditions: thermodynamic from solid; read-out: Aqueous Solubility
[8] = Human plasma protein binding (PPB); assay type: in vitro ADME; conditions: human, plasma; read-out: Human PPB (converted)

| Compound | MIC [1] | MIC [2] | MIC [4] | Dmax spread between recovery and non-recovery conditions at 24 h, 32 μg/mL [7] | further results |
| --- | --- | --- | --- | --- | --- |
| c1ccc(-c2nc3n(c2-c2ccc4c(c2)OCO4)CCCC3)nc1 [OSA_000818] | 16 µg/mL (≈ 50.1 µM) | – | – | – | – |
| COc1ccc2nc(-c3ccccn3)c(N(C)c3ccc(F)cc3)n2c1 [compound 980] | – | 4 µg/mL (≈ 11.5 µM) | 8 µg/mL (≈ 23 µM) | > 20% | MIC [3]: 4 µg/mL (≈ 11.5 µM); MRC5 TC50 [5]: 0.7 µg/mL; PMM TC50 [6]: 2.8 µg/mL |
| CSc1cccc(-c2c(-c3ccccn3)nc3n2CCC3)c1 [OSA_000826] | 4 µg/mL (≈ 13 µM) | – | – | – | – |
| c1ccc(-c2nc3n(c2-c2ccc4ccsc4c2)CCC3)nc1 [OSA_000830] | 4 µg/mL (≈ 12.6 µM) | – | – | – | – |
| COc1ccc(-c2c(-c3ccccn3)nc3n2CCC3)cc1 [OSA_000823] | 16 µg/mL (≈ 54.9 µM) | – | – | – | – |
| COc1cccc(-c2c(-c3ccccn3)nc3n2CCC3)c1 [OSA_000825] | 16 µg/mL (≈ 54.9 µM) | – | – | – | – |
| c1ccc(-c2nc3ccccn3c2-c2ccc3sccc3c2)nc1 [compound 871] | – | 4 µg/mL (≈ 12.2 µM) | 8 µg/mL (≈ 24.4 µM) | > 20% | – |
| Cc1ccc(-c2c(-c3ccccn3)nc3n2CCC3)cc1 [compound 865] | – | 4 µg/mL (≈ 14.5 µM) | 16 µg/mL (≈ 58.1 µM) | > 20% | MIC ([2]; 16 h): 4 µg/mL (≈ 14.5 µM); MIC [3]: 1 µg/mL (≈ 3.63 µM); solubility (Aqueous solubility): 32 µM (≈ 8.81 µg/mL); fraction unbound [8]: 0.08 |
| c1ccc(-c2nc3ncccn3c2-c2ccc3c(c2)OCO3)nc1 [OSA_000815] | > 32 µg/mL | – | – | – | – |
| c1ccc(-c2nc3n(c2-c2ccc4c(c2)OCC4)CCC3)nc1 [OSA_000828] | 32 µg/mL (≈ 105 µM) | – | – | – | – |
